Experiments:
[1] = target: T1, purified sickle cell hemoglobin (HbS) (Homo sapiens, UniProt P68871+P69905, E7V); experiment: Binding affinity to purified HbS by Surface Plasmon Resonance (SPR); settings: crosslinked biotinylated HbS, 1:1 binding model
T1 construct: HbS was obtained from the blood of homozygous S/S patients; from tissue; host or cells: red blood cells of homozygous S/S patients
Method: Binding Affinity, Kd (uM)
The binding affinity for compounds to purified sickle cell hemoglobin (HbS) was determined using Surface Plasmon Resonance (SPR). Patient Sickle Cell blood was obtained from Boston Children's Hospital in accordance with Institutional Review Board protocols. HbS was obtained from the blood of homozygous S/S patients, and purified using the method described in: Antonini and Brunori, Hemoglobin and Myoglobin in their Reactions with Ligands. Amsterdam, London, North-Holland Publishing Company, 1971. Whole blood was separated into red blood cell and plasma components by centrifugation, after which the plasma was decanted and discarded. Packed red blood cells were washed with normal saline (0.9% NaCl) and then lysed by 2:1 dilution with cold deionized water. The hemolysate was centrifuged to remove cellular debris, and further purified with the addition of Drabkin's Buffer (2.8 M potassium phosphate), and centrifugation with Celite®. Organic phosphates (2,3-BPG) were removed via gel filtration with Sephadex® G-25. HbS and wild-type hemoglobin, hemoglobin A (HbA), were separated by […], using diethylaminoethyl (DEAE)-Sepharose® fast flow, and eluted using a pH gradient from pH 8.5-pH 7.5. Purity of the resulting HbS and HbA was determined by native gel electrophoresis and HbS fractions used further.
To stabilize the tetrameric structure of hemoglobin, HbS was crosslinked between the beta subunits (Lys82-Lys82) using bis(3,5-dibromosalicyl) fumarate, as described in: Shibayama N. et al, J Am Chem Soc 2014, 136, 13, 5097-5105 and Shibayama N. et al, Biochemistry 1991, 39, 33, 8158-8165). Crosslinked HbS was subsequently biotynylated and captured on a custom made Streptavidin sensor to achieve protein density of 4000 to 5000 resonance units (RUs) on the surface. Compound binding to HbS using SPR was tested on Sierra Sensors MASS-1 instrument. The running buffer contained 100 mM Potassium Phosphate, pH 7.5, 0.005% Tween-20, 1 mM ethylenediaminetetraacetic acid (EDTA), 0.1 mg/mL bovine serum albumin with 1% DMSO. Compound samples were injected at a flow rate of 30 μL/min for 2 minutes association and at least 5 minutes of dissociation time. A 2- or 3-fold dilution series containing at least 4 concentrations were tested for each compound. The dose range was selected based on the activity of the compounds in biochemical assays, when available. Multiple blank injections of running buffer were run before and after each compound series to allow blank subtraction for compound data in the analysis software. Positive controls were run in each experiment to monitor and maintain the activity of HbS on the surface. A DMSO curve was run at the beginning of each data set to apply an excluded volume correction to the data during analysis. The data were processed and analyzed using Sierra Sensors and Scrubber 2.0 software. The binding affinities (dissociation constant Kd) were calculated by fitting the sensorgrams to a 1:1 binding model.

[2] = target: T2, HbS (Homo sapiens, UniProt P68871+P69905, E7V); experiment: 'R'-'T' assay (conversion of oxy HbS to deoxy HbS under deoxygenating conditions); assay type: biochemical; settings: 50% inhibition of HbS 'R'-'T' conversion; 3 uM HbS, <1% O2
T2 construct: HbS was obtained from the blood of homozygous S/S patients; from tissue; host or cells: red blood cells of homozygous S/S patients
Method: Conversion from oxy (R, relaxed state) to deoxy (T, tense state) HbS in the presence of compound was performed to determine the ability of compounds to stabilize the oxy (R) state under deoxygenating conditions. The assay run was similar to the ‘Oxygen dissociation assay’ described in Oksenberg et al, Br J Haematology, 2016, 175, 141-153.
Assay ready compound plates were prepared by first preparing a master serial dilution plate from a 30 mM initial compound stock in 100% DMSO. From this master serial dilution plate, 167 nL of the desired compound concentration was delivered to the assay ready plates using acoustical dispensing. Plates were frozen at −20° C. until needed. Purified HbS-O2 (i.e. oxy HbS) was diluted to 3 uM in 100 mM potassium phosphate buffer, pH=7.4. 50 uL of 3 uM stock solution was added to each well of the assay ready plate and mechanically mixed eight times. Following mixing the plates were covered and incubated at room temperature for one hour with moderate shaking. Following incubation, the plates were placed in a deoxygenated environment (<1% O2) for two hours, and the conversion to deoxy HbS monitored as a function of time. Oxygenated and deoxygenated forms of hemoglobin were detected using the absorbance of the Soret peaks at 415 and 430 nm respectively, and absorbance measurements (optical density, OD) were taken at 0, 90 and 120 minutes. Background absorbance for correction was collected at 700 nm.
Data were analyzed by first subtracting baseline absorbance at 700 nm from 415 nm and 430 nm data at each timepoint, and then taking the ratio of 415/430 nm data (Ratio=[(OD415−OD700)/(OD430−OD700)]. The effect at each timepoint was calculated using the ratios from the previous calculation at time 0 and each time point of interest (Effect^time x=Ratio^time x/Ratio^time 0). Percent effect was calculated by comparing the effects of compound versus HbS only with the effects observed by the positive control compound tucaresol (percent effect=[(effect^time x compound−effect^time x HbS)/(effect^time x tucaresol−effect^time x HbS)]×100). Data were reported as the percent effect for a single point. Calculations to determine the concentration of compound for 50% inhibition (IC50 (uM)) of the HbS ‘R’-‘T’ conversion were based on the percent effect at varying compound concentration.

SMILES	Kd [1] [nM]	IC50 [2] [nM]
Cc1cc2nc(N)c(O[C@@H](C)c3cc(C(=O)O)ccc3-n3cccn3)cc2cn1 [Example 22, 3-{(1S)-1-[(2-amino-7-methyl-1,6-naphthyridin-3-yl)oxy]ethyl}-4-(1H-pyrazol-1-yl)benzoic Acid]	172	5400
C[C@H](Oc1cc2cc(F)cc(F)c2nc1N)c1cc(C(=O)O)c(F)cc1-n1cccn1 [Example 23, 5-{(1S)-1-[(2-amino-6,8-difluoroquinolin-3-yl)oxy]ethyl}-2-fluoro-4-(1H-pyrazol-1-yl)benzoic Acid]	43	4010
C[C@H](Oc1cc2cc(F)cc(F)c2nc1N)c1cc(C(=O)NS(C)(=O)=O)ccc1-n1cccn1 [Example 24, 3-{(1S)-1-[(2-amino-6,8-difluoroquinolin-3-yl)oxy]ethyl}-N-(methylsulfonyl)-4-(1H-pyrazol-1-yl)benzamide]	15	4660
C[C@H](Oc1cc2cc(Br)ccc2nc1N)c1ncc(F)cc1-n1cccn1 [Example 25, 6-bromo-3-{(1S)-1-[5-fluoro-3-(1H-pyrazol-1-yl)pyridin-2-yl]ethoxy}quinolin-2-amine]	67	4780
C[C@H](Oc1cc2cc(C#N)ccc2nc1N)c1ncc(F)cc1-n1cccn1 [Example 26, 2-amino-3-{(1S)-1-[5-fluoro-3-(1H-pyrazol-1-yl)pyridin-2-yl]ethoxy}quinoline-6-carbonitrile]	138	4910
C[C@H](Oc1cc2cc(Br)ccc2nc1N)c1ncccc1-n1cccn1 [Example 28, 6-bromo-3-{(1S)-1-[3-(1H-pyrazol-1-yl)pyridin-2-yl]ethoxy}quinolin-2-amine]	157	6560
C[C@H](Oc1cc2cc(F)c(Cl)cc2nc1N)c1ncccc1-n1cccn1 [Example 29, 7-chloro-6-fluoro-3-{(1S)-1-[3-(1H-pyrazol-1-yl)pyridin-2-yl]ethoxy}quinolin-2-amine]	67	4580
C[C@H](Oc1cc2cc(C(N)=O)ccc2nc1N)c1ncccc1-n1cccn1 [Example 30, 2-amino-3-{(1S)-1-[3-(1H-pyrazol-1-yl)pyridin-2-yl]ethoxy}quinoline-6-carboxamide]	1510	6250
C[C@H](Oc1cc2cc(F)c(Cl)cc2nc1N)c1ncc(F)cc1-n1cccn1 [Example 31, 7-chloro-6-fluoro-3-{(1S)-1-[5-fluoro-3-(1H-pyrazol-1-yl)pyridin-2-yl]ethoxy}quinolin-2-amine]	69	4960
C[C@H](Oc1cc2cc(F)c(Cl)cc2nc1N)c1nc(C(N)=O)ccc1-n1cccn1 [Example 32, 6-{(1S)-1-[(2-amino-7-chloro-6-fluoroquinolin-3-yl)oxy]ethyl}-5-(1H-pyrazol-1-yl)pyridine-2-carboxamide]	57	4750
C[C@H](Oc1cc2cc(F)ccc2nc1N)c1ncc(F)cc1-n1cccn1 [Example 33, 6-fluoro-3-{(1S)-1-[5-fluoro-3-(1H-pyrazol-1-yl)pyridin-2-yl]ethoxy}quinolin-2-amine]	34	4300
C[C@H](Oc1cc2cc(C(N)=O)c(F)cc2nc1N)c1ncc(F)cc1-n1cccn1 [Example 34, 2-amino-7-fluoro-3-{(1S)-1-[5-fluoro-3-(1H-pyrazol-1-yl)pyridin-2-yl]ethoxy}quinoline-6-carboxamide]	121	5530
C[C@H](Oc1cc2cc(C(N)=O)cc(F)c2nc1N)c1ncc(F)cc1-n1cccn1 [Example 35, 2-amino-8-fluoro-3-{(1S)-1-[5-fluoro-3-(1H-pyrazol-1-yl)pyridin-2-yl]ethoxy}quinoline-6-carboxamide]	68	3930
Cc1cc2nc(N)c(O[C@@H](C)c3ncc(F)cc3-n3cccn3)cc2cn1 [Example 36, 3-{(1S)-1-[5-fluoro-3-(1H-pyrazol-1-yl)pyridin-2-yl]ethoxy}-7-methyl-1,6-naphthyridin-2-amine]	160	7710
C[C@H](Oc1cc2cc(F)ccc2nc1N)c1nc(C(=O)O)ccc1-n1cccn1 [Example 37, 6-{(1S)-1-[(2-amino-6-fluoroquinolin-3-yl)oxy]ethyl}-5-(1H-pyrazol-1-yl)pyridine-2-carboxylic Acid]	579	6770
C[C@H](Oc1cc2cc(F)cc(F)c2nc1N)c1ncc(F)cc1-n1cccn1 [Example 38, 6,8-difluoro-3-{(1S)-1-[5-fluoro-3-(1H-pyrazol-1-yl)pyridin-2-yl]ethoxy}quinolin-2-amine]	45	3620
C[C@H](Oc1cc2cc(F)ccc2nc1N)c1nc(C(=O)O)c(F)cc1-n1cccn1 [Example 39, 6-{(1S)-1-[(2-amino-6-fluoroquinolin-3-yl)oxy]ethyl}-3-fluoro-5-(1H-pyrazol-1-yl)pyridine-2-carboxylic Acid]	464	6220
C[C@H](Oc1cc2cc(F)ccc2nc1N)c1nc(OCC(=O)O)ccc1-n1cccn1 [Example 40, {[6-{(1S)-1-[(2-amino-6-fluoroquinolin-3-yl)oxy]ethyl}-5-(1H-pyrazol-1-yl)pyridin-2-yl]oxy}acetic Acid]	164	5270
C[C@H](Oc1cc2cc(F)ccc2nc1N)c1nc(OCCO)ccc1-n1cccn1 [Example 41, 2-{[6-{(1S)-1-[(2-amino-6-fluoroquinolin-3-yl)oxy]ethyl}-5-(1H-pyrazol-1-yl)pyridin-2-yl]oxy}ethanol]	44	3830
C[C@H](Oc1cc2cc(C(N)=O)ccc2nc1N)c1nc(OCCO)ccc1-n1cccn1 [Example 42, 2-amino-3-{(1S)-1-[6-(2-hydroxyethoxy)-3-(1H-pyrazol-1-yl)pyridin-2-yl]ethoxy}quinoline-6-carboxamide]	142	5260
C[C@H](Oc1cc2c(F)ccc(F)c2nc1N)c1ncc(F)cc1-n1cccn1 [Example 43, 5,8-difluoro-3-{(1S)-1-[5-fluoro-3-(1H-pyrazol-1-yl)pyridin-2-yl]ethoxy}quinolin-2-amine]	20	4630
C[C@H](Oc1cc2cc(C(N)=O)ccc2nc1N)c1nc(O)ccc1-n1cccn1 [Example 44, 2-amino-3-{(1S)-1-[6-hydroxy-3-(1H-pyrazol-1-yl)pyridin-2-yl]ethoxy}quinoline-6-carboxamide]	63	4400
C[C@H](Oc1cc2ccccc2nc1N)c1ncc(F)cc1-n1cccn1 [Example 45, 3-{(1S)-1-[5-fluoro-3-(1H-pyrazol-1-yl)pyridin-2-yl]ethoxy}quinolin-2-amine]	185	5580

Source: patent US11014908B2, “Chemical compounds” (Pfizer Inc., priority 2018, dated 2021)
